Data taken from patent US20200270233A1, “DHFR INHIBITORS, COMPOSITIONS, AND METHODS RELATED THERETO” (Vyera Pharmaceuticais LLC, priority 2017, published 2020).
Like-named read-outs stand apart in the source and are kept apart here.

Key:
T. gondii DHFR (tgDHFR) = target: T1, T. gondii DHFR (tgDHFR) (Toxoplasma gondii, UniProt Q07422); experiment: biochemical; conditions: for Average DHFR selectivity (h/tg): hDHFR IC50/tgDHFR IC50
T1 sequence (Q07422 1-610): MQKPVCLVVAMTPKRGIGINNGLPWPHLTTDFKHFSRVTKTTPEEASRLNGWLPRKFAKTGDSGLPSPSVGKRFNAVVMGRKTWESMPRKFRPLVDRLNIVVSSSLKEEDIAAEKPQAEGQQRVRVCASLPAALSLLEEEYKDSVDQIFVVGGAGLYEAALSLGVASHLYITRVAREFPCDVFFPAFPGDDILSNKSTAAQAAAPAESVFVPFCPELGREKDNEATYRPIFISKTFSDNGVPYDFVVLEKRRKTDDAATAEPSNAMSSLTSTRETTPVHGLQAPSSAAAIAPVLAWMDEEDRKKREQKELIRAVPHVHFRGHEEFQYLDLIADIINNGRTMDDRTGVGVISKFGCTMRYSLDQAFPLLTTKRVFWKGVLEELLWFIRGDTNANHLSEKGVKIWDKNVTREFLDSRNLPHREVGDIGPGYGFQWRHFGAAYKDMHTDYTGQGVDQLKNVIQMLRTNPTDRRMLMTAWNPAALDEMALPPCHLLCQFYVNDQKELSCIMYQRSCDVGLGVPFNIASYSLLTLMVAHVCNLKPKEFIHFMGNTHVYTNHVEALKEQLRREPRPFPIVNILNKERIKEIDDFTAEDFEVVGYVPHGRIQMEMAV

hDHFR = target: T2, hDHFR (Homo sapiens, UniProt P00374); format: biochemical
T2 sequence (P00374 1-187): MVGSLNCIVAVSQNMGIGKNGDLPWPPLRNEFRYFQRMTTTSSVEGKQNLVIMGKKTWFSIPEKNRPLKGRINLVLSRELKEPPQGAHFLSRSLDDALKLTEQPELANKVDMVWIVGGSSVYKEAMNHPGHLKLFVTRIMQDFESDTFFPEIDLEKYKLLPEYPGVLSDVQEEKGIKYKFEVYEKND

[1] = Table 16, pIC50 = -log10 IC50, at least three replicates, read-out: hDHFR pIC50-DHFR primary assay (converted)
[2] = Table 18, pIC50 = -log10 IC50, at least three replicates, read-out: hDHFR pIC50-DHFR primary assay (converted)
[3] = Table 16, pIC50 = -log10 IC50, at least three replicates, read-out: tgDHFR pIC50-DHFR primary assay (converted)

SMILES	IC50 (T. gondii DHFR (tgDHFR))	IC50 (hDHFR; [1])	further results
Nc1ncc(N2CCN(c3ccc(Cl)c(Cl)c3)CC2)c(N)n1 [Compound 1, 5-(4-(3,4-dichlorophenyl)piperazin-1-yl)pyrimidine-2,4-diamine]	13.8 nM	75.9 nM	–
Nc1ncc(N2CCN(c3cccc(Br)c3)CC2)c(N)n1 [Compound 11, 5-(4-(3-bromophenyl)piperazin-1-yl)pyrimidine-2,4-diamine]	11.7 nM	437 nM	–
Nc1ncc(N2CCC(c3ccccc3)CC2)c(N)n1 [Compound 15, 5-(4-phenylpiperidin-1-yl)pyrimidine-2,4-diamine]	162 nM	4070 nM	–
Nc1ncc(N2CCN(c3cccc(N4CCOCC4)c3)CC2)c(N)n1 [Compound 25, 5-(4-(3-morpholinophenyl)piperazin-1-yl)pyrimidine-2,4-diamine]	138 nM	14100 nM	–
CC1CN(c2cnc(N)nc2N)CCN1c1cccc(-c2ccccc2)c1 (stereo not shown) [Compound 26, 5-(4-([1,1′-biphenyl]-3-yl)-3-methylpiperazin-1-yl)pyrimidine-2,4-diamine]	2 nM	30.2 nM	–
CC1CN(c2cccc(-c3ccccc3)c2)CCN1c1cnc(N)nc1N (stereo not drawn) [Compound 27, 5-(4-([1,1′-biphenyl]-3-yl)-2-methylpiperazin-l-yl)pyrimidine-2,4-diamine]	138 nM	30200 nM	–
CCc1nc(N)nc(N)c1N1CCN(c2ccccc2)CC1 [Compound 28, 6-ethyl-5-(4-phenylpiperazin-1-yl)pyrimidine-2,4-diamine]	5.75 nM	1350 nM	–
CCc1nc(N)nc(N)c1N1CCN(c2cccc(C)c2)CC1 [Compound 31, 6-ethyl-5-(4-(m-tolyl)piperazin-1-yl)pyrimidine-2,4-diamine]	3.47 nM	417 nM	–
CCc1nc(N)nc(N)c1N1CCN(c2cccc(OC)c2)CC1 [Compound 33, 6-ethyl-5-(4-(3-methoxyphenyl)piperazin-1-yl)pyrimidine-2,4-diamine]	4.37 nM	–	IC50 (hDHFR; hDHFR pIC50-DHFR primary assay): 525 nM
CCc1nc(N)nc(N)c1N1CCN(c2ccccn2)CC1 [Compound 34, 6-ethyl-5-(4-(pyridin-2-yl)piperazin-1-yl)pyrimidine-2,4-diamine]	6.46 nM	1020 nM	–
CCc1nc(N)nc(N)c1N1CCN(c2ccc(F)cc2)CC1 [Compound 35, 6-ethyl-5-(4-(4-fluorophenyl)piperazin-1-yl)pyrimidine-2,4-diamine]	6.92 nM	–	–
CCc1nc(N)nc(N)c1N1CCN(c2ccncc2)CC1 [Compound 36, 6-ethyl-5-(4-(pyridin-4-yl)piperazin-1-yl)pyrimidine-2,4-diamine]	269 nM	30200 nM	–
CCc1nc(N)nc(N)c1N1CCN(c2ccc(C)cc2)CC1 [Compound 39, 6-ethyl-5-(4-(p-tolyl)piperazin-1-yl)pyrimidine-2,4-diamine]	12.3 nM	1740 nM	–
CCc1nc(N)nc(N)c1N1CCN(c2ccc(F)cn2)CC1 [Compound 44, 6-ethyl-5-(4-(5-fluoropyridin-2-yl)piperazin-1-yl)pyrimidine-2,4-diamine]	4.17 nM	295 nM	–
CCc1nc(N)nc(N)c1N1CCN(c2ccc(C)cn2)CC1 [Compound 45, 6-ethyl-5-(4-(5-methylpyridin-2-yl)piperazin-1-yl)pyrimidine-2,4-diamine]	5.89 nM	794 nM	–
Cc1nc(N)nc(N)c1N1CCN(c2cccc(Cl)c2)CC1 [Compound 46, 5-(4-(3-chlorophenyl)piperazin-1-yl)-6-methylpyrimidine-2,4-diamine]	8.13 nM	–	Average DHFR selectivity (h/tg) (T. gondii DHFR (tgDHFR); Table 16): 29.68; IC50 (hDHFR): 240 nM
Cc1nc(N)nc(N)c1N1CCN(c2ccccc2)CC1 [Compound 47, 6-methyl-5-(4-phenylpiperazin-1-yl)pyrimidine-2,4-diamine]	26.3 nM	2240 nM	–
CCCc1nc(N)nc(N)c1N1CCC(c2ccccc2)CC1 [Compound 51, 5-(4-phenylpiperidin-1-yl)-6-propylpyrimidine-2,4-diamine]	11.7 nM	2450 nM	–
CCCc1nc(N)nc(N)c1N1CCN(c2ccc(F)cc2)CC1 [Compound 52, 5-(4-(4-fluorophenyl)piperazin-1-yl)-6-propylpyrimidine-2,4-diamine]	33.1 nM	10000 nM	–
CCCc1nc(N)nc(N)c1N1CCN(c2ccccn2)CC1 [Compound 56, 6-propyl-5-(4-(pyridin-2-yl)piperazin-1-yl)pyrimidine-2,4-diamine]	25.7 nM	6760 nM	–
CCCc1nc(N)nc(N)c1N1CCN(c2ncc(C)cn2)CC1 [Compound 59, 5-(4-(5-methylpyrimidin-2-yl)piperazin-1-yl)-6-propylpyrimidine-2,4-diamine]	70.8 nM	8130 nM	–

SMILES	IC50 (T. gondii DHFR (tgDHFR))	IC50 (hDHFR; [1])	further results
CCCc1nc(N)nc(N)c1N1CCN(c2ccc(OC)cn2)CC1 [Compound 60, 5-(4-(5-methoxypyridin-2-yl)piperazin-1-yl)-6-propylpyrimidine-2,4-diamine]	20 nM	2880 nM	–
Nc1ncc(N2CCN(c3cccc(-c4cccc(F)c4)c3)CC2)c(N)n1 [Compound 64]	11.5 nM	1070 nM	–
N#Cc1cccc(-c2cccc(N3CCN(c4cnc(N)nc4N)CC3)c2)c1 [Compound 67]	3.89 nM	302 nM	–
Cc1ncc(-c2cccc(N3CCN(c4cnc(N)nc4N)CC3)c2)cn1 [Compound 69, 5-(4-(3-(2-methylpyrimidin-5-yl)phenyl)piperazin-1-yl)pyrimidine-2,4-diamine]	4.47 nM	–	–
Nc1ncc(N2CCN(c3cccc(-c4cncnc4)c3)CC2)c(N)n1 [Compound 74]	–	–	IC50 (hDHFR; [2]): 3090 nM
COc1ncccc1-c1cccc(N2CCN(c3cnc(N)nc3N)CC2)c1 [Compound 80]	6.17 nM	1020 nM	–
Nc1ncc(N2CCN(c3cccc(-c4cnc(C5CC5)nc4)c3)CC2)c(N)n1 [Compound 86]	–	–	IC50 (hDHFR; [2]): 832 nM
CCc1ncc(-c2cccc(N3CCN(c4cnc(N)nc4N)CC3)c2)cn1 [Compound 95]	7.24 nM	1580 nM	IC50 (hDHFR; [2]): 1410 nM
CN(C)c1ncc(-c2cccc(N3CCN(c4cnc(N)nc4N)CC3)c2)cn1 [Compound 96]	10 nM	1150 nM	–
CNc1ncc(-c2cccc(N3CCN(c4cnc(N)nc4N)CC3)c2)cn1 [Compound 97]	5.62 nM	741 nM	–
Nc1ncc(N2CCN(c3cccc(-c4cnc(Cl)nc4)c3)CC2)c(N)n1 [Compound 100]	6.76 nM	1320 nM	IC50 (hDHFR; [2]): 1320 nM
Nc1nc(N)c(N2CCN(c3ccccc3)CC2)c(CC2CC2)n1 [Compound 106]	27.5 nM	5890 nM	–
Nc1ncc(N2CCN(c3cccc(C4CCOCC4)c3)CC2)c(N)n1 [Compound 110, 5-(4-(3-(tetrahydro-2H-pyran-4-yl)phenyl)piperazin-1-yl)pyrimidine-2,4-diamine]	34.7 nM	6170 nM	IC50 (hDHFR; Table 20, pIC50 = -log10 IC50, at least three replicates, read-out: hDHFR pIC50-DHFR primary assay (converted)): 7760 nM
Cc1ncc(-c2cccc(C3CCN(c4cnc(N)nc4N)CC3)c2)cn1 [Compound 113, 5-(4-(3-(2-methylpyrimidin-5-yl)phenyl)piperidin-1-yl)pyrimidine-2,4-diamine]	6.17 nM	372 nM	–
COc1ncc(-c2cccc(N3CCN(c4cnc(N)nc4N)CC3)n2)cn1 [Compound 158]	–	18.2 nM	Average DHFR selectivity (h/tg) (T. gondii DHFR (tgDHFR); Table 16): 17.78; IC50 (T. gondii DHFR (tgDHFR); [3]): 1.02 nM
COc1ncc(-c2cccc(N3CCN(c4cnc(N)nc4N)CC3)c2F)cn1 [Compound 159]	–	2340 nM	Average DHFR selectivity (h/tg) (T. gondii DHFR (tgDHFR); Table 16): 80.32; IC50 (T. gondii DHFR (tgDHFR); [3]): 30.2 nM
COc1ncc(-c2cc(N3CCN(c4cnc(N)nc4N)CC3)ccc2F)cn1 [Compound 160]	–	389 nM	Average DHFR selectivity (h/tg) (T. gondii DHFR (tgDHFR); Table 16): 156.11; IC50 (T. gondii DHFR (tgDHFR); [3]): 2.51 nM
COc1ncc(-c2cc(F)cc(N3CCN(c4cnc(N)nc4N)CC3)c2)cn1 [Compound 161]	–	138 nM	Average DHFR selectivity (h/tg) (T. gondii DHFR (tgDHFR); Table 16): 51.27; IC50 (T. gondii DHFR (tgDHFR); [3]): 2.69 nM
COc1ncc(-c2cncc(N3CCN(c4cnc(N)nc4N)CC3)c2)cn1 [Compound 162]	–	1450 nM	Average DHFR selectivity (h/tg) (T. gondii DHFR (tgDHFR); Table 16): 117.08; IC50 (T. gondii DHFR (tgDHFR); [3]): 12.3 nM
COc1ncc(-c2cc(N3CCN(c4cnc(N)nc4N)CC3)ccn2)cn1 [Compound 163]	–	155 nM	Average DHFR selectivity (h/tg) (T. gondii DHFR (tgDHFR); Table 16): 23.00; IC50 (T. gondii DHFR (tgDHFR); [3]): 6.76 nM
COc1ncc(-c2ccc(F)c(N3CCN(c4cnc(N)nc4N)CC3)c2)cn1 [Compound 164]	–	562 nM	Average DHFR selectivity (h/tg) (T. gondii DHFR (tgDHFR); Table 16): 65.26; IC50 (T. gondii DHFR (tgDHFR); [3]): 8.71 nM
